Measurements: patent US20130130241A1, “ANDROGEN RECEPTOR ISOFORMS AND METHODS” (Regents of the University of Minnesota, priority 2010, published 2013)

What was measured:
22Rv1 cells = conditions: Dehm et al., 2008; cited from earlier work
androgen receptor = assay: AR knock-down by siRNA in 22Rv1 cells, Western blot; format: cell-based, human; conditions: for expression of androgen receptor isoforms (Western blot): FIG. 3B
Description: FIG. 3. A) Schematic of androgen receptor mRNA isoforms expressed in 22Rv1 cells. DBD*, Exon 3-duplicated AR. B) 22Rv1 cells were electroporated with siRNAs targeted to Exons […]. androgen receptor and ERK-2 levels were determined. C) Rabbit antisera were raised against an Exon 2b-derived peptide. Equal amounts of 22Rv1 lysates were immunoprecipitated with crude antisera, or antibody purified on an immobilized Exon2b-peptide column, non-specific rabbit IgG, or a rabbit polyclonal antibody specific for the androgen receptor NTD. Western blots were performed with a mouse monoclonal antibody specific for the androgen receptor NTD.
We have investigated mechanisms of prostate cancer therapy resistance in cell- and xenograft-based models of prostate cancer progression with a focus on ligand-independent androgen receptor activation (Dehm and Tindall, 2006 J Biol Chem 281:27882-93; Dehm and Tindall, 2007 Mol Endocrinol 21:2855-63). One model of interest is the ADI 22Rv1 prostate cancer cell line, which was derived from an androgen-dependent CWR22 prostate cancer xenograft that relapsed during androgen depletion (Sramkoski et al., 1999 In Vitro Cell Dev Biol Anim 35:403-9). […] The Exon 1 and Exon 7 targeted siRNAs were purchased from Dharmacon, Inc. (Lafayette, Colo.). The sequences are as follows:
Truncated androgen receptor from 22Rv1 cells appears as a doublet in Western blot experiments (FIG. 3B). Because 3′ RACE experiments identified AR 1/2/2b and AR 1/2/3/2b as alternatively spliced androgen receptor isoforms in this cell line, we pursued the hypothesis that these two discrete bands represented AR 1/2/2b and AR 1/2/3/2b (Dehm et al., 2008 Cancer Res 68:5469-77). […] To this end, we tested siRNAs targeted to AR Exon 1, AR Exon 3, or AR Exon 7 (FIG. 3A).
Western blotting of CWR22Pc and 22Rv1 lysates with AR (Santa Cruz N-20), ERK-2 (Santa Cruz D-2), and ARV-7 (Precision Antibody #AG10008) antibodies was performed exactly as described (Dehm et al., 2008 Cancer Res 68:5469-77).

[1] = tested on: androgen receptor target genes; conditions: 22Rv1 cells; Dehm et al., 2008; cited from earlier work
[2] = tested on: patients with ADI prostate cancer; conditions: Phase II trial; Scher et al., 2010; cited from earlier work
[3] = tested on: LNCaP cells expressing truncated AR isoforms; conditions: Watson et al., 2010; cited from earlier work

Row | Molecule | androgen-independent proliferation of 22Rv1 cells (22Rv1 cells) | expression of a ~80 kDa androgen receptor protein species (androgen receptor) | expression of androgen receptor isoforms (Western blot) (androgen receptor) | androgen-independent expression of androgen receptor target genes [1] | share of CRPCa patients with robust decrease in serum PSA levels (at least 50%), stabilized bone disease, conversion of CTC counts to favorable [2] | androgen-independent growth of LNCaP cells expressing truncated AR isoforms [3]
1 | AR Exon 1-targeted siRNA: Dharmacon siRNA duplex targeted to AR Exon 1; sense SEQ ID NO: 1, antisense SEQ ID NO: 2 (sense CAAGGGAGGUUACACCAAAUU; antisense UUUGGUGUAACCUCCCUUGUU; listed as RNA, chemistry not given here) | inhibited | knocked-down | knocked down expression of all androgen receptor isoforms | inhibited | – | –
2 | CNC(=O)c1ccc(N2C(=S)N(c3ccc(C#N)c(C(F)(F)F)c3)C(=O)C2(C)C)cc1F [MDV3100] | – | – | – | – | one-half | inhibit
3 | AR Exon 7-targeted siRNA: Dharmacon siRNA duplex targeted to AR Exon 7; sense SEQ ID NO: 3, antisense SEQ ID NO: 4 (sense GGAACUCGAUCGUAUCAUUUU; antisense AAUGAUACGAUCGAGUUCCUU; listed as RNA, chemistry not given here) | not | – | selectively knocked down expression of full-length androgen receptor | not | – | –
